In this experiment the target is T1, human TNFα (Homo sapiens, UniProt P01375).
T1 construct: purchased Biosource, Camarillo, Calif
Briefly: p55 Receptor/IgG Fusion Protein Binding Assay (inhibition of TNFα capture by p55-Ig coated plate). The settings on record: for inhibition at 1000 µM / inhibition of binding of TNFα to p55TNFr-IgG chimeric construct: peptide 1 mM, TNFα 25 ng/ml; for inhibition at 1000 µM: read-out: inhibition of binding of TNFα to p55TNFr-IgG chimeric construct; for dose dependent inhibition of TNFα (FIG. 1): various concentrations of peptide. The procedure:
This assay was designed to identify peptides which bind to human TNFα and thereby prevent the capture of the TNFα by a microtiter plate coated with p55-Ig fusion protein. A constant concentration of human TNFα is preincubated with the test peptide and then incubated on the p55-Ig coated microtiter wells. Bound TNFα is detected using a specific antisera and an alkaline phosphatase-conjugated probe.
A 96-well, U-bottom polyvinylchloride microtiter plate was coated with 50 μl/well of p55-Ig fusion protein at 5 μg/ml in 0.01M sodium phosphate, 0.15M sodium chloride (PBS) by incubation overnight at 4° C. or 2 hours at 37° C. The fusion protein, which consists of a p55 TNF receptor protein portion and an IgG portion, can be produced as disclosed in U.S. application Ser. No. 08/010,406 filed Jan. 29, 1993 which is incorporated herein by reference. The plate was washed three times with 0.05% Tween-20 in PBS, then blocked, by adding 150 μl/well of assay buffer (10 mM N-2-hydroxyethylpiperazine-N'-[…] (HEPES) pH 7.2, containing 0.1% porcine gelatin, 0.1% Tween-80, and 0.01% sodium azide) and continuing incubation for 1 hour at 37° C. or at 4° C. for 1-7 days.
Lyophilized peptides to be tested were weighed in tared 12×75 mm polystyrene tubes and reconstituted to a concentration of 1.2 mM with assay buffer. Each suspension was sonicated in a water bath for 1-5 minutes and vortexed 15-30 seconds to disperse large particles. Serial dilutions of each peptide suspension were prepared using assay buffer in a 96-well polystyrene microtiter plate. Additional wells received Fab fragment of the mouse/human monoclonal anti-human TNFα antibody cA2 (positive control) or assay buffer (negative control). […] The polystyrene dilution plate was then sealed and incubated 1 hour at room temperature on an orbital mixer set at moderate speed.
Following the sample preincubation, blocker was discarded from the p55-Ig coated plate and blotted dry. Aliquots (50 μl) of each peptide or control were transferred into duplicate wells on the p55-Ig coated plate which was then sealed and incubated i hour at 37° C. Duplicate wells containing only assay buffer were included as a plate blank. After incubation the p55-Ig plate was washed three times with 0.05% Tween-20 in PBS.
To detect TNFα captured by the p55-Ig plate, all wells were incubated in succession with polyclonal rabbit anti-human TNFα (Genzyme, Boston, Mass.; 1:500 in assay buffer, 50 μl/well), biotinylated goat anti-rabbit Ig (H&L) (Vector Laboratories, Burlingame, Calif.; 1 μg/ml in assay buffer, 50 μl/well) and streptavidin-alkaline phosphatase conjugate (Pierce, Rockford, Ill.; 1 μg/ml in assay buffer, 50 μl/well). All incubations were for 1 hour at 37° C. and after each incubation the plate was washed three times with 0.05% Tween-20 in PBS. Fifty microliters of alkaline phosphatase substrate solution (alkaline buffer (Sigma, St. Louis, Mo.) diluted 1:500 in deionized water plus one 5 mg tablet of p-nitrophenyl phosphate (Sigma, St. Louis, Mo.) per 5 ml of diluted buffer) was added to all wells and incubation continued for 20 minutes at room temperature. Color development was stopped by adding to all wells 50 μl of 3N sodium hydroxide. The optical density (OD) at 405 nm was measured on a microtiter plate reader (Molecular Devices Vmax plate reader), with the plate blank wells subtracted as background. The activity of each peptide was then expressed as the percent inhibition of TNFα capture by the p55-Ig plate, relative to the amount of TNFα captured in wells containing only assay buffer (negative control), as follows: % inhibition=100-((mean OD peptide/mean OD negative control)×100).
The inhibition of binding of TNFα to p55TNFr-IgG chimeric construct was performed as described above using several embodiments of the invention. The peptides were tested at a concentration of 1 mM.

Where a SMILES comes first, the peptide text is derived from it. Where no end group is shown, it is not given here.

T1 sequence (P01375 77-233 limits assumed): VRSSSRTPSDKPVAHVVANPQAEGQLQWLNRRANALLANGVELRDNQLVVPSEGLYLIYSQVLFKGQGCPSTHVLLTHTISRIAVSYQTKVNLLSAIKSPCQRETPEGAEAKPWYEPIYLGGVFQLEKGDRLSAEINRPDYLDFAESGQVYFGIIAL

`CC(=O)N[C@@H](CCC(N)=O)C(=O)N[C@@H](Cc1ccc(O)cc1)C(=O)N[C@@H](CCCNC(=N)N)C(=O)N[C@@H](Cc1c[nH]cn1)C(=O)N[C@@H](Cc1ccc(O)cc1)C(=O)N[C@@H](Cc1c[nH]c2ccccc12)C(=O)N[C@@H](CO)C(=O)N[C@@H](CCC(=O)O)C(=O)N[C@@H](CC(N)=O)C(=O)N[C@@H](CC(C)C)C(=O)N[C@@H](Cc1ccccc1)C(=O)N[C@@H](CCC(N)=O)C(=O)N[C@@H](C)C(=O)N[C@@H](Cc1ccccc1)C(=O)N[C@@H](CC(N)=O)C(N)=O` [SEQ ID NO:11, Acetyl-glutaminyl-tyrosyl-arginyl-histidyl-tyrosyl-tryptophyl-seryl-glutamyl-asparaginyl-leucyl-phenylalanyl-glutaminyl-alanyl-phenylalanyl-asparagineAmide]: the inhibition (as a rule, the percentage by which the read-out fell short of the control) at 1000 µM came to 27% and the “dose dependent inhibition of TNFα (FIG. 1)” value is “dose dependent inhibition”.

Consider “SEQ ID NO:46: peptide of the invention that inhibits TNFα; sequence not printed (SNTTSSTDIARPHQI)”, for which the “inhibition of binding of TNFα to p55TNFr-IgG chimeric construct” value (shortened to “inhibition of binding of TNFα”) is 66%.

For the compound `CC(C)C[C@H](NC(=O)[C@H](CCCNC(=N)N)NC(=O)[C@H](C)NC(=O)[C@@H](NC(=O)[C@H](CO)NC(=O)CNC(=O)[C@@H]1CCCN1C(=O)[C@H](CCC(=O)O)NC(=O)[C@@H]1CCCN1C(=O)[C@H](C)NC(=O)[C@H](Cc1ccc(O)cc1)NC(=O)[C@@H]1CCCN1C(=O)[C@@H](NC(=O)[C@@H](N)Cc1ccccc1)[C@@H](C)O)[C@@H](C)O)C(=O)N[C@@H](CCCNC(=N)N)C(N)=O` [SEQ ID NO:25] (H-FTPYAPEPGSTARLR-NH2), the inhibition at 1000 µM was 69%.

In the case of `CC(C)C[C@H](NC(=O)[C@H](Cc1ccccc1)NC(=O)[C@H](Cc1ccccc1)NC(=O)CNC(=O)[C@H](C)NC(=O)[C@H](Cc1c[nH]cn1)NC(=O)[C@H](C)NC(=O)[C@@H](NC(=O)[C@H](C)NC(=O)[C@@H](NC(=O)[C@@H](NC(=O)[C@H](CC(N)=O)NC(=O)[C@H](CCC(N)=O)NC(=O)[C@@H](N)CCCCN)[C@@H](C)O)C(C)C)[C@@H](C)O)C(=O)N[C@@H](CCCNC(=N)N)C(N)=O` [SEQ ID NO:16, Lysyl-glutaminyl-asparaginyl-threonyl-valyl-alanyl-threonyl-alanyl-histidyl-alanyl-glycyl-phenylalanyl-phenylalanyl-leucyl-arginine Amide] (H-KQNTVATAHAGFFLR-NH2), the inhibition at 1000 µM came to 48%.

For the compound `CC(C)C[C@H](NC(=O)[C@H](CCCCN)NC(=O)[C@@H](NC(=O)[C@H](CS)NC(=O)[C@H](CCC(=O)O)NC(=O)[C@H](CC(C)C)NC(=O)[C@H](CO)NC(=O)[C@H](CCCCN)NC(=O)[C@H](CCCCN)NC(=O)[C@H](CS)NC(=O)[C@H](CC(N)=O)NC(=O)[C@H](CO)NC(=O)[C@H](CS)NC(=O)[C@H](CO)NC(=O)[C@@H](NC(=O)[C@H](CS)NC(=O)[C@H](CCC(=O)O)NC(=O)[C@H](CC(N)=O)NC(=O)[C@H](CCC(=O)O)NC(=O)[C@@H](N)CCCNC(=N)N)C(C)C)[C@@H](C)O)C(=O)O` [SEQ ID NO:20, Arginyl-glutamyl-asparaginyl-glutamyl-cysteinyl-valyl-seryl-cysteinyl-seryl-asparaginyl-cysteinyl-lysyl-lysyl-seryl-leucyl-glutamyl-cysteinyl-threonyl-lysyl-leucine] (H-RENECVSCSNCKKSLECTKL-OH), the inhibition at 1000 µM worked out at 26%.

In the case of `CC(C)C[C@H](NC(=O)[C@H](Cc1c[nH]cn1)NC(=O)[C@@H](NC(=O)[C@H](C)NC(=O)CN)C(C)C)C(=O)N1CCC[C@H]1C(=O)N[C@@H](CCC(N)=O)C(=O)N1CCC[C@H]1C(=O)N[C@H](C(=O)N[C@@H](CO)C(=O)N[C@H](C(=O)N[C@@H](CCCNC(=N)N)C(=O)N[C@@H](CO)C(=O)N[C@@H](CCC(N)=O)C(=O)N[C@@H](Cc1c[nH]cn1)C(N)=O)[C@@H](C)O)C(C)C` [SEQ ID NO:55] (H-GAVHLPQPVSTRSQH-NH2), the inhibition at 1000 µM amounted to 60%.

As to `CC(C)C[C@H](NC(=O)[C@H](CC(N)=O)NC(=O)[C@H](CCC(=O)O)NC(=O)[C@H](CO)NC(=O)[C@H](Cc1c[nH]c2ccccc12)NC(=O)[C@H](Cc1ccc(O)cc1)NC(=O)[C@H](Cc1c[nH]cn1)NC(=O)[C@H](CCCNC(=N)N)NC(=O)[C@H](Cc1ccc(O)cc1)NC(=O)[C@H](CCC(N)=O)NC(=O)[C@H](CC(N)=O)NC(=O)[C@H](CCCCN)NC(=O)[C@@H](N)CCCNC(=N)N)C(=O)N[C@@H](Cc1ccccc1)C(=O)N[C@@H](CCC(N)=O)C(N)=O` [SEQ ID NO:10], the inhibition at 1000 µM was found to be 49%.

Turning to “SEQ ID NO:52: peptide of the invention that inhibits TNFα; sequence not printed (ASRDAVATSTSPTRS)”, the “inhibition of binding of TNFα” value is on record as 63%.

Regarding `C[C@H](NC(=O)[C@H](CCC(=O)O)NC(=O)[C@H](CCCNC(=N)N)NC(=O)[C@H](C)NC(=O)[C@H](CC(=O)O)NC(=O)[C@@H](NC(=O)[C@H](CC(=O)O)NC(=O)[C@H](CCC(N)=O)NC(=O)CNC(=O)[C@@H]1CCCN1C(=O)CNC(=O)[C@@H]1CCCN1C(=O)[C@H](C)NC(=O)[C@@H](N)CC(=O)O)[C@@H](C)O)C(=O)N[C@@H](CCC(=O)O)C(N)=O` [SEQ ID NO:2] (H-DAPGPGQDTDAREAE-NH2), the inhibition at 1000 µM turned out to be 62%.

Consider “SEQ ID NO:35: peptide of the invention that inhibits TNFα; sequence not printed (VADSAEDSTYTQLWN)”, for which the “inhibition of binding of TNFα” value stood at 72%.

As for “SEQ ID NO:45: peptide of the invention that inhibits TNFα; sequence not printed (GTFSNTTSSTDIARP; also: C-terminal blocking group)”, the “inhibition of binding of TNFα” value amounted to 73% and the “dose dependent inhibition of TNFα (FIG. 1)” value is recorded as “dose dependent inhibition”.

Take `CSCC[C@H](NC(=O)[C@@H]1CCCN1C(=O)[C@H](CC(C)C)NC(=O)[C@H](CC(C)C)NC(=O)[C@H](Cc1ccccc1)NC(=O)[C@H](CO)NC(=O)[C@@H](NC(=O)[C@H](CO)NC(=O)[C@@H]1CCCN1C(=O)[C@H](C)N)[C@@H](C)O)C(=O)NCC(=O)N1CCC[C@H]1C(=O)N[C@@H](CO)C(=O)N1CCC[C@H]1C(=O)N1CCC[C@H]1C(N)=O` [SEQ ID NO:62] (H-APSTSFLLPMGPSPP-NH2): the inhibition at 1000 µM amounted to 62%.

As to “SEQ ID NO:40: peptide of the invention that inhibits TNFα; sequence not printed (WVPEALSAGSRASSD)”, the “inhibition of binding of TNFα” value is given as 72%.

`CSCC[C@H](NC(=O)[C@@H]1CCCN1C(=O)[C@H](CC(C)C)NC(=O)[C@H](CC(C)C)NC(=O)[C@H](Cc1ccccc1)NC(=O)[C@H](CO)NC(=O)[C@@H](NC(=O)[C@H](CO)NC(=O)[C@@H]1CCCN1C(=O)[C@H](C)NC(=O)[C@@H](NC(=O)[C@H](CO)NC(=O)[C@@H]1CCCN1)[C@@H](C)O)[C@@H](C)O)C(=O)NCC(=O)N1CCC[C@H]1C(N)=O` [SEQ ID NO:61] (H-PSTAPSTSFLLPMGP-NH2): the inhibition at 1000 µM was found to be 72%.

As to `CC(C)C[C@H](NC(=O)[C@H](CCCNC(=N)N)NC(=O)[C@H](C)NC(=O)[C@@H](NC(=O)[C@H](CO)NC(=O)CNC(=O)[C@@H]1CCCN1C(=O)[C@H](CCC(=O)O)NC(=O)[C@@H]1CCCN1C(=O)[C@H](C)NC(=O)[C@@H](N)Cc1ccc(O)cc1)[C@@H](C)O)C(=O)N[C@@H](CCCNC(=N)N)C(=O)N[C@@H](CCC(=O)O)C(=O)N[C@@H](Cc1ccc(O)cc1)C(=O)N[C@@H](Cc1ccc(O)cc1)C(N)=O` [SEQ ID NO:26] (H-YAPEPGSTARLREYY-NH2), the inhibition at 1000 µM turned out to be 71%.

The values above are taken from US5486595A, “Tumor necrosis factor inhibitors” (Centecor, Inc., priority 1994, dated 1996).
